Data published in US20100247579A1, “THERAPEUTIC AGENT FOR CANCER” (priority 2007, published 2010).

Tests used:
Assay type in all cases: cell-based, human
[1] = test system: X-ray irradiated PBMCs derived from an allogeneic donor (stimulator cells); experiment: Allogeneic mixed lymphocyte reaction (MLR) using cultured lymphocytes (expansion fold)
[2] = test system: PBMC of cancer patient; experiment: Expansion of lymphocytes from PBMC of cancer patients in plate/flask, OKT3 alone versus OKT3 and CH-296
Description: The OKT3 and the CH-296 were immobilized to the culture equipment used in the following experiment. That is, an ACD-A solution containing OKT3 (final concentration: 5 μg/mL) and CH-296 (final concentration: 25 μg/mL) was added to a 12-well cell culture plate (manufactured by Corning Inc.) in a volume of 0.45 mL/well each, and incubated at 37° C. for 5 hours in 5% CO2. On this occasion, a group wherein only OKT3 was immobilized was set. The ACD-A solution containing the OKT3 or the OKT3 and the CH-296 was removed from the culture equipment by aspiration just before use, washed twice with DPBS and once with the RPMI 1640 medium, and then subjected to each experiment.
The PBMC of 0.53×10^6 cells derived from the cancer patient and separated in item (1) of Example 2 was suspended in 5.3 mL of 0.6% plasma containing KBM551 or 0.2% HSA/GT-T503, and added to the plate immobilized with the OKT3 or the OKT3 and the CH-296 as prepared in item (1) of Example 5. IL-2 was added thereto so as to have a final concentration of 200 U/mL and the mixture was incubated at 37° C. under 5% CO2 (on day 0 of culture). On day 4 of culture, the cell solution in each well was suspended, and a part of the suspension was diluted 8.3-fold using 0.6% plasma-containing KBM551 or 0.2% HSA/GT-T503. Then, 7.8 mL of the diluted solution was transferred to a 25 cm^2-cell culture flask (manufactured by Corning Inc.) to which nothing was immobilized, and added with IL-2 to each final concentration of 200 U/mL. The culture was continued, and on day 7, a plasma free KBM551 or a 0.2% HSA/GT-T503 was added to the culture solution in each group in an equivalent amount to dilute two-fold, and then added with IL-2 so as to have each final concentration of 200 U/mL. On day 10 of culture, the cell solution in each group was diluted two-fold using a plasma free KBM551 or a 0.2% HSA/GT-T503, and 15.6 mL each of the diluted solution was transferred to a fresh standing 25 cm^2-cell culture flask to which nothing was immobilized. IL-2 was added thereto so as to have a final concentration of 200 U/mL in each group. On days 10 and 14 from the start of culture, the number of viable cells was counted by the trypan blue staining method and an expansion fold was calculated by comparing the number of counted cells with the number of cells at the start of culture.

[3] = test system: lymphocytes expanded from PBMC of cancer patient; experiment: Flow cytometry analysis of naive T-like cell phenotypes in expanded lymphocytes; conditions: Example 5
Description: The cells on days 10 and 14 of culture, prepared in item (3) of Example 2, were washed with DPBS containing 1% bovine serum albumin (BSA, manufactured by Sigma) (hereinafter referred to as 1% BSA/DPBS) or DPBS, and the cells were suspended in 1% BSA/DPBS, then FITC labeled mouse IgG1/RD1 labeled mouse IgG1/PC5 labeled mouse IgG1 (manufactured by Beckman Coulter Inc.) were added thereto as a negative control. Similarly, cells added with RD1 labeled mouse anti-human CD45RA antibody (manufactured by Beckman Coulter Inc.)/FITC labeled mouse anti-human CCR7 antibody (manufactured by R&D Systems), cells added with RD1 labeled mouse anti-human CD45RA antibody/FITC labeled mouse anti-human CD28 antibody (manufactured by eBioscience, Inc.)/PC5 labeled mouse anti-human CD27 antibody (manufactured by Beckman Coulter Inc.), and cells added with RD1 labeled mouse anti-human CD45RA antibody/FITC labeled mouse anti-human CCR7 antibody/PC5 labeled mouse anti-human CD62L antibody (manufactured by Beckman Coulter Inc.) were prepared. After addition of each antibody, incubation was carried out on ice for 30 minutes. After the incubation, the cells were washed with DPBS containing 0.1% BSA (hereinafter referred to as 0.1% BSA/DPBS), and suspended again in DPBS. The ratio of CCR7^+CD45RA^+ cells, CD27^+CD45RA^+ cells, CD28^+CD45RA^+ cells, CD62L^+CD45RA^+ cells, and CCR7^+CD62L^+CD45RA^+ cells of each cell population was calculated. […]
With respect to the cells on days 10 and 14 of culture, prepared in item (2) of Example 5, analysis of CCR7^+CD45RA^+ cells, CD62L^+CD45RA^+ cells, and CCR7^+CD62L^+CD45RA^+ cells was performed similarly to the method described in item (4) of Example 2.

[4] = test system: PHA blast cells from non-autologous healthy donor; experiment: Non-autologous specific cytotoxicity after allogeneic MLR (Calcein-AM); conditions: E/T ratio 90
Description: The PBMCs derived from a non-autologous healthy donor, prepared in item (2) of Example 6, were adjusted with 5HRPMI to 1×10^6 cells/mL, and seeded to a 6-well cell culture plate (manufactured by Corning Inc.) in a volume of 3 mL each. IL-2 was added thereto to a final concentration of 100 U/mL and phytohemaaglutinin (manufactured by Sigma, hereinafter referred to as PHA) was added thereto to a final concentration of 2 μg/mL, and the cells were cultured at 37° C. in 5% CO2. On day 4 of culture, 12 mL of 5HRPMI was added to the cell culture and IL-2 was added thereto to a final concentration of 100 U/mL. Thereafter, the cell culture was dispensed into a 6-well cell culture plate so as to have a volume of 5 mL/well. The culture was continued until day 7 of culture, thereby preparing PHA blast (blastogenic) cells.
Using the cells on day 7 of culture prepared in item (3) of Example 6, non-autologous specific cytotoxicity was assayed in the same manner as in item (5) of Example 2, except that the PHA blast cells which had been subjected to blastogenic cells in item (4) of Example 6 were used as the target cells which were incubated at 37° C. for 2 hours after addition of calcein-AM. These calcein-labeled target cells were mixed with a 30-fold amount of K562 cells, and the cytotoxicity was assayed using these target cells for determining the cytotoxicity. […]

[5] = PBMC of patient PT006 (breast cancer), KBM551
[6] = PBMC of patient PT008 (laryngeal cancer), KBM551
[7] = PBMC of patient PT012 (rectal cancer), KBM551
[8] = PBMC of patient PT003, 0.2% HSA/GT-T503

## OKT3: Anti-CD3 monoclonal antibody (OKT3), immobilized alone to the culture equipment as initial stimulation
[1]; lymphocytes of patient PT012, 10 days of lymphocyte expansion, responder:stimulator 1:0
  Expansion Rate (Fold): x3.0 Fold
[1]; lymphocytes of patient PT012, 10 days of lymphocyte expansion, responder:stimulator 1:1
  Expansion Rate (Fold): x5.3 Fold
[1]; lymphocytes of patient PT012, 14 days of lymphocyte expansion, responder:stimulator 1:0
  Expansion Rate (Fold): x1.1 Fold
[1]; lymphocytes of patient PT012, 14 days of lymphocyte expansion, responder:stimulator 1:1
  Expansion Rate (Fold): x3.7 Fold
[2]; PBMC of patient PT003 (breast cancer), 0.2% HSA/GT-T503
  Expansion Fold (Fold) On Day 10 from Start of Culture: ×200 Fold
[2]; PBMC of patient PT003 (breast cancer), KBM551
  Expansion Fold (Fold) On Day 10 from Start of Culture: ×193 Fold
[2]; [5]
  Expansion Fold (Fold) On Day 10 from Start of Culture: ×202 Fold
  Expansion Fold (Fold) On Day 14 from Start of Culture: ×382 Fold
[2]; [6]
  Expansion Fold (Fold) On Day 10 from Start of Culture: ×119 Fold
  Expansion Fold (Fold) On Day 14 from Start of Culture: ×292 Fold
[2]; [7]
  Expansion Fold (Fold) On Day 10 from Start of Culture: ×281 Fold
  Expansion Fold (Fold) On Day 14 from Start of Culture: ×723 Fold
[3]; [8]
  CCR7^+CD45RA^+ (%) On Day 10 from Start of Culture: 13.3%
  CCR7^+CD62L^+CD45RA^+ (%) On Day 10 from Start of Culture: 13.1%
  CD62L^+CD45RA^+ (%) On Day 10 from Start of Culture: 52.5%
[3]; PBMC of patient PT003, KBM551
  CCR7^+CD45RA^+ (%) On Day 10 from Start of Culture: 5.4%
  CCR7^+CD62L^+CD45RA^+ (%) On Day 10 from Start of Culture: 5.1%
  CD62L^+CD45RA^+ (%) On Day 10 from Start of Culture: 50.9%
[3]; PBMC of patient PT006, KBM551
  CCR7^+CD45RA^+ (%) On Day 10 from Start of Culture: 24.9%
  CCR7^+CD45RA^+ (%) On Day 14 from Start of Culture: 36.9%
  CCR7^+CD62L^+CD45RA^+ (%) On Day 10 from Start of Culture: 24.6%
  CCR7^+CD62L^+CD45RA^+ (%) On Day 14 from Start of Culture: 36.7%
  CD62L^+CD45RA^+ (%) On Day 10 from Start of Culture: 79.2%
  CD62L^+CD45RA^+ (%) On Day 14 from Start of Culture: 75.7%
[3]; PBMC of patient PT008, KBM551
  CCR7^+CD45RA^+ (%) On Day 10 from Start of Culture: 4.6%
  CCR7^+CD45RA^+ (%) On Day 14 from Start of Culture: 4.2%
  CCR7^+CD62L^+CD45RA^+ (%) On Day 10 from Start of Culture: 4.2%
  CCR7^+CD62L^+CD45RA^+ (%) On Day 14 from Start of Culture: 3.9%
  CD62L^+CD45RA^+ (%) On Day 10 from Start of Culture: 53.0%
[3]; PBMC of patient PT012, KBM551
  CCR7^+CD45RA^+ (%) On Day 10 from Start of Culture: 19.4%
  CCR7^+CD45RA^+ (%) On Day 14 from Start of Culture: 25.0%
  CCR7^+CD62L^+CD45RA^+ (%) On Day 10 from Start of Culture: 17.1%
  CCR7^+CD62L^+CD45RA^+ (%) On Day 14 from Start of Culture: 23.4%
  CD62L^+CD45RA^+ (%) On Day 10 from Start of Culture: 56.0%
  CD62L^+CD45RA^+ (%) On Day 14 from Start of Culture: 43.4%
[4]; lymphocytes of patient PT012, 10 days of lymphocyte expansion
  Cytotoxicity (%): 15.2%
[4]; lymphocytes of patient PT012, 14 days of lymphocyte expansion
  Cytotoxicity (%): 27.6%
